Experimental data: paper PMC7238976 (Phytochemistry, 2020)
Where two headings read alike, the source gives them in different places.

Legend:
[1] = tested on: HL4–3 virus; test: Anti-HIV-1 activity against HL4–3 virus in MT4 cells; assay type: cell-based
[2] = tested on: MT4 cells; test: Cytotoxicity toward MT4 cells; assay type: cell-based; conditions: read-out: Cytotoxicity CC50, means, n = 3
[3] = Cytotoxicity toward MT4 cells; assay type: cell-based; conditions: human
[4] = tested on: HIV; conditions: read-out: Anti-HIV IC50 (literature); ref Olivon, et al., 2017; cited from earlier work
[5] = read-out: Anti-HIV-1 IC50, HL4–3 virus in MT4 cells, means, n = 3

| Compound | IC50 [1, 5] | CC50 [2] | also measured |
| --- | --- | --- | --- |
| Crotignoid P [Compound 5] | 0.1 µM | > 1.6 µM | – |
| CCCCCCCCCCCCCC(=O)O[C@@]12C[C@@H](C)[C@@]3(O)[C@@H](C=C(CO)C[C@]4(O)C(=O)C(C)=C[C@@H]34)[C@@H]1C2(C)C [Compound 8, 12-deoxyphorbol-13-myristate] | 0.022 µM | > 1.8 µM | – |
| Crotignoid N [Compound 3] | 0.31 µM | > 1.6 µM | – |
| Cc1cn([C@H]2C[C@H](N=[N+]=[N-])[C@@H](CO)O2)c(=O)[nH]c1=O [AZT, zidovudine, reference compound] | – | – | IC50 ([1]; Human immunodeficiency virus 1, MT4, read-out: Anti-HIV-1 IC50): 0.0187 µM; Selectivity index SI ([1]; ratio of CC50 and anti-HIV IC50): > 20; CC50 [3]: > 0.37 µM |
| CCCCCCCCCCCCCCCC(=O)O[C@@]12C[C@@H](C)[C@@]3(O)[C@H]([C@@H]1C2(C)C)[C@H](O)[C@](O)(CO)[C@@H](O)[C@]1(O)C(=O)C(C)=C[C@H]13 [12-deoxy-5β-6β-7α-trihydroxy-phorbol-13-hexadecanoate] | – | – | IC50 [4]: 0.257 µM |
| Crotignoid Q [Compound 6] | > 1.9 µM | > 1.9 µM | Anti-HIV activity (in words) ([1]; HL4–3 virus in MT4 cells): did not show anti-HIV activity |
| CCCCCCCCCCCCCCCC(=O)O[C@@]12C[C@@H](C)[C@]3(O)[C@@H]4C=C(C)C(=O)[C@@]4(O)[C@H](O)C(CO)=C[C@H]3[C@@H]1C2(C)C [12-deoxy-5β-hydroxy-phorbol-13-hexadecanoate] | – | – | IC50 [4]: 0.002 µM |
| CCCCCCCCCCCCCCCC(=O)O[C@@]12C[C@@H](C)[C@@]3(O)[C@@H](C=C(CO)C[C@]4(O)C(=O)C(C)=C[C@@H]34)[C@@H]1C2(C)C [Compound 7, 12-deoxyphorbol-13-hexadecanoate] | 0.0023 µM | > 1.7 µM | – |
| Crotignoid L [Compound 1] | 0.22 µM | > 1.8 µM | – |
| Crotignoid M [Compound 2] | 0.038 µM | > 1.7 µM | – |
| Crotignoid O [Compound 4] | 4.03 µM | > 1.8 µM | – |
